From ChEMBL document CHEMBL5465560, “Selectivity Literature for EUbOPEN Chemogenomic Library” (2024)

Legend:
[1] = biological target: T1, Mitogen-activated protein kinase kinase kinase 19 (Homo sapiens) (UniProt Q56UN5); test: Selectivity interaction (KinomeScan (DiscoverX)) EUB0001079a MAP3K19; conditions: at 1 µM
T1 sequence (whole entry): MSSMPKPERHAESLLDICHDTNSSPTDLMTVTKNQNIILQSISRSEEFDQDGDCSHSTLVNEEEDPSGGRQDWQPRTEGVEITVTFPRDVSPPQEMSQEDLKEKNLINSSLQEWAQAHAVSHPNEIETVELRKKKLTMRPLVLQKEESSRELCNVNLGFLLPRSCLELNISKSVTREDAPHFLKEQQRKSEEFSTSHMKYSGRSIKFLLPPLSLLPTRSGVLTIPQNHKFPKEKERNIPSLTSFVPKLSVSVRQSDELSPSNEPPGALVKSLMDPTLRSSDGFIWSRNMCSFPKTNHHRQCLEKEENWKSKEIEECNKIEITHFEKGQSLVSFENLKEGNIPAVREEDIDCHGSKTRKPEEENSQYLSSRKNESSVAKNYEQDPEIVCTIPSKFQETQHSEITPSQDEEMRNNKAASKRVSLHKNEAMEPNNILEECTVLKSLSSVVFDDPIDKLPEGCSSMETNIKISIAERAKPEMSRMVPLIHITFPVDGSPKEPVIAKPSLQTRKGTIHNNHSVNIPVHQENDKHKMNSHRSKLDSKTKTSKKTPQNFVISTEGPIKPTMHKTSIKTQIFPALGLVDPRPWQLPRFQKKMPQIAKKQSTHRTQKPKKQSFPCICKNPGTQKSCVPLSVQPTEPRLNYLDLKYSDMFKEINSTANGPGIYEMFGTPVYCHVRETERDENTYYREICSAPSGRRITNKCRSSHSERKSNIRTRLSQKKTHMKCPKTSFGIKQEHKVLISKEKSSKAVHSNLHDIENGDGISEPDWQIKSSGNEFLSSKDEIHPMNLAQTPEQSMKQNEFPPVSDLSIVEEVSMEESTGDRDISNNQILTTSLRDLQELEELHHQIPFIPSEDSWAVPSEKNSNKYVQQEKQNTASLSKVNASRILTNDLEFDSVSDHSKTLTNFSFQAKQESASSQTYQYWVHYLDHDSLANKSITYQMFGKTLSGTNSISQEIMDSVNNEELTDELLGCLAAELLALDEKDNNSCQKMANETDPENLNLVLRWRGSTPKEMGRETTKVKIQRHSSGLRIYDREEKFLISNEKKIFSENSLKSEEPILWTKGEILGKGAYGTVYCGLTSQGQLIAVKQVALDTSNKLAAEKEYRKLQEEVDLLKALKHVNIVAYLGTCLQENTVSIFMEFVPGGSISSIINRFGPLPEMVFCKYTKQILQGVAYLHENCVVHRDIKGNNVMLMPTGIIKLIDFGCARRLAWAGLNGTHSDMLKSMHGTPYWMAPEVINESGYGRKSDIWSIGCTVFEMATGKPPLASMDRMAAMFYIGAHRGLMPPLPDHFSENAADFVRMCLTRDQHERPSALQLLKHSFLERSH

[2] = biological target: T2, Serine/threonine-protein kinase TAO2 (Homo sapiens) (UniProt Q9UL54); test: Selectivity interaction (KinomeScan (DiscoverX)) EUB0001049a TAOK2; conditions: at 1 µM
T2 sequence (whole entry): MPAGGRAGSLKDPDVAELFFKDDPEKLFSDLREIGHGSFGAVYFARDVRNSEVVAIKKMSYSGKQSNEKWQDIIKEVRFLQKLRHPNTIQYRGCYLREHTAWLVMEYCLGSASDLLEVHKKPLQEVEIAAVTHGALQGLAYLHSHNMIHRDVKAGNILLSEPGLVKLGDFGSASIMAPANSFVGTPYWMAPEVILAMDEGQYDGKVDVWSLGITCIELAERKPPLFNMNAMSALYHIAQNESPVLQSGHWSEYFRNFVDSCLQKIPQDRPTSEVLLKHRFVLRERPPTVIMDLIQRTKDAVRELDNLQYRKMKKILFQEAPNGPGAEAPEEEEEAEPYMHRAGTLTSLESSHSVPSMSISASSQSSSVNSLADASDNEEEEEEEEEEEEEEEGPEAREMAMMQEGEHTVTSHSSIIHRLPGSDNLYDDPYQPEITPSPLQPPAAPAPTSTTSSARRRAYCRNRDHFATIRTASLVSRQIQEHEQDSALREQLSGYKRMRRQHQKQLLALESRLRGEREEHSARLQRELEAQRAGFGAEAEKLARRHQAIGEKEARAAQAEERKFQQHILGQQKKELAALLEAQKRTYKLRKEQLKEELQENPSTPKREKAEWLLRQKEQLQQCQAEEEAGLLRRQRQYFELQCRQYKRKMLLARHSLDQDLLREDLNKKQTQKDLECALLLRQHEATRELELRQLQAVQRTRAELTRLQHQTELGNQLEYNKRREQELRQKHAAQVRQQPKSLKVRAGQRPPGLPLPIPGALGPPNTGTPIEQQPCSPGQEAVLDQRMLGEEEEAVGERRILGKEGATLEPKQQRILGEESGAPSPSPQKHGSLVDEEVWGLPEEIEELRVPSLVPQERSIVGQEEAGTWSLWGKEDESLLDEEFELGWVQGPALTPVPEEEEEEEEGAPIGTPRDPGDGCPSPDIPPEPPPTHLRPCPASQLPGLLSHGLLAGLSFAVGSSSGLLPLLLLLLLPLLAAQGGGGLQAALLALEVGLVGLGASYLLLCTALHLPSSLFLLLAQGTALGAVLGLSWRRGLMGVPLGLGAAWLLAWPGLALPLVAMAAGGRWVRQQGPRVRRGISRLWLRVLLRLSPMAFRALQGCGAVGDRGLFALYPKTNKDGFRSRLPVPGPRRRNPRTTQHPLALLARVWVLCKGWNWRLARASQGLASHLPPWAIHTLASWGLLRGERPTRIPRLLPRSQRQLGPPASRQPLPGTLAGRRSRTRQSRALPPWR

SMILES	% of control [1]	% of control [2]
Nc1cnc(N2CCc3cc(S(=O)(=O)Nc4c(F)cc(Cl)cc4F)cc(N4CCCC4=O)c32)nc1 [TP-020n]	100%	–
COc1cc(Nc2nc(C)cc(-c3cnn4nc(OC)ccc34)n2)cc(C(F)(F)F)c1	–	77%
